Patent publication US20090197800A1, “Insulin Receptor Binding Peptides with Non-Insulin Gene Activation Profiles and Uses Thereof” (Novo Nordisk A/S, priority 2004, published 2009)
Ends that are not written are not given here.

Legend:
[1] = test system: primary rat hepatocytes; test: quantitative RT-PCR of mRNA expression in primary rat hepatocytes; type: cell-based; conditions: 18 h; for effect on HMGCR mRNA level / effect on HMGCS1 mRNA level / effect on MVD mRNA level: 5 doses (0.1, 0.3, 1, 10, 100 nM), FIG. 3; for mRNA expression of fatty acid synthase (direction of regulation) / mRNA expression of glucose-6-phosphate catalytic subunit (direction of regulation): FIG. 4
Method: Male Wistar rats (˜200 g) were anaesthetized with a freshly prepared mixture (1:1) of Hyp-norn (0.05 mg/ml fentalyl/2.5 mg/ml fluabizone) and Dormicum (1.25 mg/ml midazolam) administered subcutaneously (1 ml/kg). Hepatocytes were isolated from rats fed ad libitum by a two-step perfusion technique essentially as described by Seglen, Biochem. J. (1999) 342 (545-550). Cell viability, assessed by Trypan Blue exclusion, was consistently greater than 80%. Cells were plated on to collagen-coated six-well plates in basal medium (Medium 199, 5.5 mM glucose supplemented 100 nM decadron, 1% penicillin (10,000 U)/streptomycin (10,000 U), and 1 nM insulin) with 4% fetal calf serum at a cell density of 1.2*10^6 cells/well. The medium was replaced 1 h after initial plating in order to remove dead cells. […] Following stimulation for 18 h, the cells were washed twice in PBS and 1.3 ml SV RNA-lysis buffer (Promega, Madison, Wis.) were added to each well.
(§1) Total RNA was isolated and DNase treated using SV96 total RNA isolation system (Promega, Madison, Wis.) following manufacturer's instructions.
(§2) cDNA was prepared from 100 ng of total RNA from each of the treatments (n=3) using random primers and TaqMan® Reverse (Applied Biosystems, Foster City, Calif. (USA)).
(§3) Transcription reagents were used/applied according to the manufacturer's instructions. Quantitative PCR was performed on each of the cDNA samples (10-fold dilutions of cDNA) using TaqMan® PCR core reagents (Applied Biosystems) on an ABI PRISM® 7000 Sequence Detection System (Applied Biosystems). Primers and FAM-labeled-probes for human and rat HMG-CoA reductase (HMGCR), mevalonate (diphospho) decarboxylase (MVD), HMG-CoA synthase 1 (HMGCS1), 18S rRNA, rat fatty acid synthase (FAS), and rat glucose-6-phosphate catalytic subunit (G6PC) were ordered as Assays-on-Demand (Applied Biosystems).
(§4) Probe sequences for these assays were as follows: HMGCR (human AC-[…] (assay Hs00168352_m1) (SEQ ID NO: 34), rat GCAC-[…] (assay Rn00565598_m1) (SEQ ID NO: 35)), MVD (human […] (assay Hs00159403_m1) (SEQ ID NO: 36), rat […] (assay Rn00579216_m1) (SEQ ID NO: 37)), HMGCS1 (human […] (assay Hs00266810_m1) (SEQ ID NO: 38), rat […] (assay Rn00568579_m1) (SEQ ID NO: 39)), 18S rRNA ([…]; assay HS99999901_s1) (SEQ ID NO: 40), FAS (rat […] (assay Rn00569117_m1) (SEQ ID NO: 41)), and G6PC (rat […] (assay Rn00565347_m1) (SEQ ID NO: 42)). Data were analyzed using ABI Prism 7000 SDS software (version 1.0; Applied Biosystems), and expression levels for HMGCR, MVD, HMGCS1, FAS, and were normalized to the 18S rRNA levels.

[2] = test system: SGBS adipocytes; test: quantitative RT-PCR of cholesterol biosynthesis genes in SGBS adipocytes; type: cell-based, human; conditions: 18 h; for expression level of HMG-CoA synthase 1 (direction of regulation) / expression level of mevalonate (diphospho) decarboxylase (direction of regulation): quantitative RT-PCR, dose dependent, SGBS adipocytes, FIG. 2
Method: (§5) A human preadipocyte cell strain derived from subcutaneous adipose tissue of an infant with Simpson-Golabi-Behmel syndrome (SGBS) was plated out in 6 well plates and grown to confluence in DMEM/F12 medium (Gibco) containing 1% biotin, 1% panthothenic acid, 1% penicillin (10000 U)/streptomycin (10000 U), and 10% Fetal bovine serum (Gibco-Invitrogen, Carlsbad Calif. (USA)—“Gibco”). Differentiation of SGBS preadipocytes into adipocytes was induced by adding DMEM/F12 medium (Gibco) containing 1% biotin, 1% panthothenic acid, 1% penicillin (10,000 U)/streptomycin (10,000 U), 100 nM cortisol, […] triiodothyronine, 20 nM insulin, 250 nM dexamethasone (first 6 days), 500 μM IBMX (first 6 days), 2 μM rosiglitazone (first 3 days) and letting cells differentiate for 14 days.
(§6) Before stimulation with insulin and IRBP S597 the differentiated adipocytes were cultured in DMEM/F12 medium (Gibco) containing 1% biotin, 1% panthothenic acid, 1% penicillin (10,000 U)/streptomycin (10,000 U), 100 nM cortisol, and […] triiodothyronine for 2 days. Insulin and S597 (1, 3, 10, 30, 100 nM) were separately added to cells in DMEM/F12 medium (Gibco) containing 1% biotin, 1% panthothenic acid, 1% penicillin (10,000 U)/streptomycin (10,000 U), 100 nM cortisol, 200 pM triiodothyronine, and 0.1% BSA. Following stimulation for 18 h (18 hours), the cells were washed twice in PBS and 1.3 ml SV RNA-lysis buffer (Promega, Madison, Wis.) was added to each well.
as §1, §2, §3, §4

[3] = test system: human SGBS adipocytes; test: cDNA microarray analysis of total RNA from SGBS adipocytes treated with S597 or human insulin; type: cell-based; conditions: 30 nM, 18 hours, vs vehicle
Method: To compare the transcriptional effects of human insulin (HI) and an exemplary IRBP, IRBP S597, cDNA microarray analyses were performed on total RNA from human SGBS adipocytes treated with S597 (30 nM) or human insulin (30 nM) for 18 hours. The microarray hybridizations were carried out as dual color (Cy3/Cy5) hybridizations comparing vehicle treatments to insulin or S597 treatments. Three individual RNA samples from vehicle, S597, and insulin treated cells were compared, and all hybridizations were repeated with reversed dye combination (e.g. vehicle (Cy3) vs. S597 (Cy5) repeated as vehicle (Cy5) vs. S597 (Cy3)). The specific steps employed in this experimental analysis of the effects of HI versus IRBP S597 are described in the following paragraphs.
as §5, §6, §1
Incyte Easy-To-Spot™ PCR-products (ETS1220 comprising ˜9000 human clones) (Amersham Biosciences) dissolved in 50% DMSO were spotted on to Corning Ultra Gaps slides (Corning Inc., Corning, N.Y.) at 55% relative humidity using the Molecular Dynamics Gen. III microarray spotter (Amersham Biosciences, Buckinghamshire, UK). All slides were baked at 80° C. for 4 h. Approximately 250 ng of total RNA from cells treated with vehicle, human insulin (30 nM) and S597 (30 nM) were used for synthesis of complementary RNA (amplified RNA (aRNA)) using Amino-allyl MessageAmp™ aRNA kit (Ambion, Austin, Tex.). Amino-allyl cDNA was synthesized from 1.5 μg of each RNA-amplification. The aRNA was incubated with random primer at 70° C. for 10 min. and subsequently chilled on ice for 30 sec. The primer annealed RNA was incubated with reaction mixture (1× Superscript II buffer (Life Technologies, Taastrup, Denmark), 10 mM DTT, 200 μM dGAT(−TP) 100 μM dCTP, 100 μM Cy-3/Cy-5-dCTP (Amersham Biosciences), and 200 units of Superscript II reverse transcriptase (Life Technologies, Taastrup, Denmark) at 42° C. for 2 h in a final volume of 20 μl. The RNA template was removed by alkaline denaturation (incubation with 2 μl 2.5 M NaOH at 37° C. for 15 min.). Amino-allyl labeled probes were purified using a Qiagen PCR purification kit (Qiagen). The amino-allyl cDNA was resuspended in 0.1 M NaHCO3 pH 9.0 and coupled to Cy3/Cy5 NHS-ester (Amersham Biosciences) for 1 h at RT in the dark. Unreacted ester groups were quenched by addition of hydroxylamine. Cy3- and Cy5-labeled cDNA was purified using Qiagen PCR purification kit (Qiagen). […]

[4] = quantitative RT-PCR, 1, 3, 10, 30, 100 nM, normalized to 18S, FIG. 1

| Substance | effect on HMGCR mRNA level [1] | effect on HMGCS1 mRNA level [1] | effect on MVD mRNA level [1] | mRNA expression of fatty acid synthase (direction of regulation) [1] | mRNA expression of glucose-6-phosphate catalytic subunit (direction of regulation) [1] | dose dependant downregulation of HMG-CoA reductase mRNA [2, 4] [fold down] | expression level of HMG-CoA synthase 1 (direction of regulation) [2] | expression level of mevalonate (diphospho) decarboxylase (direction of regulation) [2] | HMG-CoA reductase (HMGCR) gene downregulation [3] [fold] | HMG-CoA synthase 1 (HMGCS1) gene downregulation [3] [fold] | mevalonate (diphospho) decarboxylase (MVD) gene downregulation [3] [fold] | dose dependant upregulation of HMG-CoA reductase mRNA [2, 4] [fold up] | HMG-CoA reductase (HMGCR) gene upregulation [3] [fold] | HMG-CoA synthase 1 (HMGCS1) gene upregulation [3] [fold] | mevalonate (diphospho) decarboxylase (MVD) gene upregulation [3] [fold] |
| --- | --- | --- | --- | --- | --- | --- | --- | --- | --- | --- | --- | --- | --- | --- | --- |
| Ac-SLEEEWAQIECEVYGRGCPSESFYDWFERQL (cysteine pairing not given here) [S597] | no significant changes | no significant changes | no significant changes | upregulation | downregulation | ~2 | downregulated | downregulated | 2.1 | 1.4 | 2.5 |  |  |  |  |
| human insulin | clear upregulating effect | clear upregulating effect | clear upregulating effect | upregulation | downregulation |  | upregulated | upregulated |  |  |  | ~3 | 2.3 | 2.0 | 2.1 |
